Test results as given in patent EP0383856B1, “USE OF PEPTIDES FOR INHIBITING BLOOD VESSEL BLOCKAGE” (SOCIETE DE CONSEILS DE […] D'APPLICATIONS SCIENTIFIQUES …, priority 1988, dated 1989).
“And” between values parts separate entries of the source, which are not always exact repeats. Identical values can stand only once. Like-named read-outs stand apart in the source and are kept apart here.

How the values were obtained:
[1] = tested on: Myointimal Hyperplasia; test: Myointimal hyperplasia in rabbits after balloon angioplasty of iliac artery and aorta (morphometry); assay type: in vivo, white New Zealand rabbits; settings: for percentage of inhibition of myointimal hyperplasia: 20 µg/kg/d; for % Intimal hyperplasia, Mean: group mean; for % Intimal hyperplasia: individual samples
Method: Female and Male, white New Zealand rabbits (2.8-3.0 kg) were divided into two groups (A and B). Group A (vehicle control) received subcutaneous injections of physiological saline (0.2 ml) twice daily. […] The animals were treated the day before angioplasty, and until sacrifice about 3 weeks later. The angioplasty was done under general anesthesia with Ketamine and Xylazine. Each animal's left iliac artery and aorta were denuded with an angioplasty catheter (Fogarty). The angioplasty catheter was inserted into the left femoral artery and passed through the vessel to the thoracic aorta. The catheter was then reciprocated three times. The animals were all sacrificed from days 22-24 after angioplasty. The aorta and iliac arteries were fixed in situ via perfusion with formaldehyde under constant perfusion pressure.
Intimal hyperplasia was determined on elastin-stained (Van Giesen) horizontally-cut sections. The sections were obtained from (i) the aorta at the level of the renal artery, (ii) the common iliac artery at the level of bifurcation, and (iii) the external iliac artery just above the inguinal ligament. The area of intimal hyperplasia and total vessel area were determined by morphometry. The percentage of intimal hyperplasia was expressed as follows: [formula] Single determinations were made on three segments of each aorta and the two iliac arteries of each animal. The percentage of intimal hyperplasia was determined as the mean of the two closest measurements of each vessel.

[2] = tested on: smooth muscle cell proliferation; test: Primate balloon catheter injury of aorta and femoral arteries, smooth muscle cell proliferation; assay type: in vivo, cynomologous macaques; settings: aorta and left and right femoral arteries; i.m. slow release system, total 50 µg/kg/day; one treated animal versus one control; five weeks
Method: In order to obtain a primate coronary angioplasty model which would be suited for evaluation of Angiopeptin, a feasibility study was performed on primates which were made available from the colony at Bowman-Gray Medical School, Winston-Salem, North Carolina. These animals were culled from the colony due to failure of the primates to satisfactorily elevate blood lipids when administered a high cholesterol diet. Young male cynomologous macaques weighing approximately 3.5 kg were used after an equilibration period of more than a week in a primate facility.
The animals were sedated with Ketamine and maintained with 1% halothane in oxygen. The aorta and femoral arteries were injured by a balloon catheter (USCI, Band). After five weeks the primates were anesthetized and sacrificed. The aorta and femoral arteries were removed and fixed in formaldehyde for morphometric analysis. […]
The maximal intimal/media ratio (distance from lumen to internal elastic lamina/distance from internal elastic lamina to external elastic lamina) was determined in each vessel using a digitizing system attached to a light microscope. The determinations were done on three different cross sections of the vessel and each section was measured three times and each three measurements were averaged.

[3] = tested on: myointimal cell proliferation in the aortas of rabbits; test: Rabbit aorta 72 hours after balloon angioplasty: wet weight, protein, DNA/protein, 3-H thymidine incorporation; assay type: in vivo, New Zealand White Rabbits; settings: for Levels of Proteins (total protein content of the injured aortas): Fig. 2; for DNA/Protein Ratio: Fig. 3; for Thymidine (3-H) Incorporation (rates of cell proliferation): Fig. 4
Method: New Zealand White Rabbits were anesthetised with Rompun (Xylazine) and Ketalar (Ketamine) and a cannula (3F Fogarty) was inserted from the femoral artery. The balloon was inflated at a constant pressure and the aorta was deendothelialised by angioplasty. The process was repeated three times and the wound site was closed. The animals were sacrificed 72 hours after balloon angioplasty and after removing the adventitia the aorta was cut into fine rings. These rings were incubated in the presence of 3-H thymidine and the radioactivity was determined after processing the tissue. Simultaneous measurements of DNA and protein contents were also made in these tissues.
Eight injections of Angiopeptin were made: on the morning and evening of the day prior to ballooning; two on the day of the procedure; and two on each of the following two days. The total daily dose was 2, 20, or 200 µg/Kg body weight.

[4] = tested on: growth hormone release; settings: in vivo, from Heiman et al., Coy et al., Tolis et al., cited from earlier work
[5] = tested on: myointimal proliferation of the carotid artery; test: Air-drying injury of the rat carotid artery, myointimal proliferation (maximal intimal/media ratio, morphometry); assay type: in vivo, Sprague-Dawley rats
Method: Male Sprague-Dawley rats, weighing […], obtained from Charles River were kept under controlled lighting conditions and fed rat chow and water ad libitum. Under sodium pentobarbital anesthesia the intima of the right carotid artery was subjected to an air-drying injury described by Fishman et al, Lab Invest., 32, 339 (1975). This procedure causes intimal hyperplasia that largely consists of proliferating intimal smooth muscle cells. In this model approximately 4 cm of the vessel is isolated and drained of blood. Air (20 ml/min) is blown through a 30 gauge needle for 5 min whereafter blood flow is reestablished. The contralateral carotid artery was also exposed but not air-dried. The rats were sacrificed 15 days later.
The experiment consisted of a control group and ten treatment groups. The somatostatin analogs used were hepta- or octapeptides, namely BIM 23014 (Angiopeptin), BIM 23012, BIM 23027, BIM 23030 and BIM 23034. […] The animals were pretreated two days prior to the procedure and for a further five days following the endothelial injury. Two additional groups of animals were added in order to study whether Angiopeptin (20 µg/kg/day and 50 µg/kg/day) administered 30 min prior to the endothelial injury and for a further five days would protect against the myointimal proliferation.
The animals were sacrificed on day 15 following the injury by exsanguination. The vascular system was flushed with normal saline and perfusion-fixed at 80 mmHg with 10% formalin. The carotid arteries were subsequently fixed, embedded and sectioned for light microscopy and morphometric analysis. The maximal intimal/media ratio is the distance from the lumen to the internal elastic lamina and the distance from the internal elastic lamina to the external elastic lamina. The distances were determined in each vessel using a digitizing system attached to a light microscope. The determinations were performed on three different cross sections of the vessel and each section was measured three times. The mean was calculated for each vessel. Differences between the groups were evaluated using Student's unpaired t-test.

[6] = tested on: smooth muscle pig left coronary artery explants; test: H3-thymidine incorporation in denuded pig left coronary artery explants; assay type: cell-based, Domestic pig; settings: 24 hr, individual segments
Method: Domestic pig hearts were obtained from a slaughter house immediately after the animals were sacrificed. The hearts were harvested and placed in ice-cold Kreb's Ringer buffer and transported to the laboratory. The left coronary artery (LAD) was dissected in aseptic conditions and divided into pieces of 5 mm. The segments were denuded from the endothelium by gently introducing a metallic rod in the lumen. The tissues were placed in sterile multiwell culture dishes in 1 ml of culture media (DMEM with antibiotics) and without fetal calf serum. H³-thymidine (2.5 uCi/ml) and increasing concentrations of angiopeptin (10-1000 ng/ml) were added to the medium. Segments which were incubated with 3 different concentrations of forskolin were used as a positive control in each experiment. The incubation period was 24 hr at 37°C and 5% CO₂. The tissues were washed with phosphate saline buffer and placed in a solution of cold thymidine for one hour and then frozen in liquid nitrogen, ground and lysed with a hypotonic solution. The lysed tissues were further incubated with proteinase K overnight at 50°C. The radioactivity, content of protein and DNA were measured.

[7] = common iliac artery, female rabbits
[8] = common iliac artery, male rabbits
[9] = external iliac artery, female rabbits
[10] = external iliac artery, male rabbits

What does the source list for `CC(C)[C@@H]1NC(=O)[C@H](CCCCN)NC(=O)[C@@H](Cc2c[nH]c3ccccc23)NC(=O)[C@H](Cc2ccc(O)cc2)NC(=O)[C@@H](NC(=O)[C@H](N)Cc2ccc3ccccc3c2)CSSC[C@@H](C(=O)N[C@H](C(N)=O)[C@@H](C)O)NC1=O` [Angiopeptin, D-Nal-Cys-Tyr-D-Trp-Lys-Val-Cys-Thr-NH₂]?
percentage of inhibition of myointimal hyperplasia ([1]; aorta, female rabbits): ~43%; % Intimal hyperplasia, Mean ([1]; aorta, female rabbits): 12.5%; % Intimal hyperplasia ([1]; aorta, female rabbits): 13.0% and 10.7% and 12.8% and 19.5% and 6.4%; percentage of inhibition of myointimal hyperplasia ([1]; aorta, male rabbits): ~32%; % Intimal hyperplasia, Mean ([1]; aorta, male rabbits): 14.8%; % Intimal hyperplasia ([1]; aorta, male rabbits): 15.9% and 17.0% and 12.4% and 13.3% and 13.8% and 15.7% (2×); percentage of inhibition of myointimal hyperplasia [1, 7]: ~33%; % Intimal hyperplasia, Mean [1, 7]: 13.1%; % Intimal hyperplasia [1, 7]: 6.5% and 9.3% and 9.5% and 19.7% and 20.5% and 15.3% and 16.6% and 7.7%; percentage of inhibition of myointimal hyperplasia [1, 8]: ~39%; % Intimal hyperplasia, Mean [1, 8]: 14.1%; % Intimal hyperplasia [1, 8]: 14.9% and 16.0% and 6.4% and 17.4% and 13.9% and 15.8% and 14.0%; percentage of inhibition of myointimal hyperplasia [1, 9]: about 41%; % Intimal hyperplasia, Mean [1, 9]: 20.7%; % Intimal hyperplasia [1, 9]: 17.8% and 26.4% and 15.2% and 21.3% and 33.6% and 24.1% and 20.6% and 6.6%; percentage of inhibition of myointimal hyperplasia [1, 10]: ~20%; % Intimal hyperplasia, Mean [1, 10]: 24.4%; % Intimal hyperplasia [1, 10]: 30.5% and 19.2% and 25.7% and 26.5% and 22.3% and 37.9% and 22.2%; inhibition of smooth muscle cell proliferation [2]: nearly complete inhibition; Levels of Proteins (total protein content of the injured aortas) ([3]; 2 µg/kg body wt.): lowered the total protein content; DNA/Protein Ratio ([3]; 20 µg/kg body weight): significantly lowered; Thymidine (3-H) Incorporation (rates of cell proliferation) ([3]; 20 µg/kg body wt.): significantly lower; DNA/Protein Ratio ([3]; 200 µg/kg body wt.): reflected the inhibitory influence; Thymidine (3-H) Incorporation (rates of cell proliferation) ([3]; 200 µg/kg): still inhibited the myointimal proliferation; Wet Weight of aortas ([3]; 2, 20 and 200 µg/kg body wt. daily, 72 hours after balloon angioplasty, Fig. 1): does not seem to influence; Levels of Proteins (total protein content of the injured aortas) ([3]; higher doses (20 and 200 µg/kg body wt.)): did not affect the levels of total proteins; inhibition of growth hormone release [4]: less active; inhibition of growth hormone release ([4]; listed as BIM 23014): potent inhibitors of growth hormone release; myointimal proliferation of the carotid artery following endothelial injury by air drying ([5]; 20 µg/kg/day s.c. in two divided doses, from two days prior to injury and five days after, sacrifice day 15): effective; myointimal proliferation of the carotid artery following endothelial injury by air drying ([5]; 50 µg/kg/day s.c. in two divided doses, from two days prior to injury and five days after, sacrifice day 15): effective; myointimal proliferation ([5]; 50 µg/kg/day, started 30 min prior to the arterial injury and for a further five days): significantly (p<0.01) inhibited; myointimal proliferation of the carotid artery following endothelial injury by air drying ([5]; overall statement for the doses used (20 and 50 µg/kg/day s.c.), started two days prior to injury): inhibited significantly (P<0.01); CPM ([6]; Angiopeptin 10 ng/ml): 35113.84 CPM and 46392.32 CPM and 27312.80 CPM and 55980.00 CPM; CPM ([6]; Angiopeptin 20 ng/ml): 26279.81 CPM and 39027.27 CPM and 39706.01 CPM and 21562.08 CPM; CPM ([6]; Angiopeptin 50 ng/ml): 24269.18 CPM and 40768.09 CPM and 18983.78 CPM and 18942.16 CPM; CPM ([6]; Angiopeptin 100 ng/ml): 20794.85 CPM and 32402.31 CPM and 22033.48 CPM and 26227.64 CPM; CPM ([6]; Angiopeptin […] (so in the source)): 18325.51 CPM and 27260.98 CPM and 30226.99 CPM and 32344.58 CPM
